Measured values: publication PMC6858493 (ACS chemical biology, 2019)

What was measured:
E. coli [1] = assay: E. coli exponential growth rate; format: cell-based, Escherichia coli; settings: 100 μM compound
[2] = test system: RAW 264.7 murine macrophages; assay: cells; format: cell-based; settings: Mus musculus, RAW264.7, 24 h, read-out: EC50 (cell killing)
Lon [3] = biological target: Lon (Escherichia coli, UniProt P0A9M0); assay: biochemical; format: biochemical, E. coli; settings: for inhibition of recombinant Lon: with varied pre-incubation time
Sequence of Lon (Escherichia coli, UniProt P0A9M0) (P0A9M0 whole entry): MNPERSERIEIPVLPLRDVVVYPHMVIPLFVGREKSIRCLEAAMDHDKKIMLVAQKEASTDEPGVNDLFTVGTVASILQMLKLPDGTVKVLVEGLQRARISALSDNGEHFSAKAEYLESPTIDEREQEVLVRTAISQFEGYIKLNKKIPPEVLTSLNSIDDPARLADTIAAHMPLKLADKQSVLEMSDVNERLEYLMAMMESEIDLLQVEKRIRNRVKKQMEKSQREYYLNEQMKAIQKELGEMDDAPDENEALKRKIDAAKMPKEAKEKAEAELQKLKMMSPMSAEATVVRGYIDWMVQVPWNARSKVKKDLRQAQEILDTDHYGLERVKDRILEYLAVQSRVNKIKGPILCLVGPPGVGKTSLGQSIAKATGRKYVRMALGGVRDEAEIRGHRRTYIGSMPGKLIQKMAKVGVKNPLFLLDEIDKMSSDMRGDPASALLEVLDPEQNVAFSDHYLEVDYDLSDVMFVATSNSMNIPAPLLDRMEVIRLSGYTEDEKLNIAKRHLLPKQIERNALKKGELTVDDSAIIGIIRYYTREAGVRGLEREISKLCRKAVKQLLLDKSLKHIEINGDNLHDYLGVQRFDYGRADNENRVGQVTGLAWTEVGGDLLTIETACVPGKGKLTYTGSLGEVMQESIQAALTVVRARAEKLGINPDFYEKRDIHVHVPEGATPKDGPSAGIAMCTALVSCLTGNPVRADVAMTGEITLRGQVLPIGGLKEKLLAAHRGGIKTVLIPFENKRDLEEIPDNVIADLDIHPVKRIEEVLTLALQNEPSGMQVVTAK

h20S (β2) = h20S (β2) (Homo sapiens, UniProt Q99436); assay: h20S β2 subunit inhibition assay; format: biochemical; settings: 60 min enzyme-inhibitor pre-incubation; mean ± SD, n=3
E. coli [4] = assay: UV-induced filamentation of E. coli; format: cell-based, Escherichia coli
E. coli [5] = assay: Ciprofloxacin persister cell quantification; format: cell-based, Escherichia coli
E. coli [6] = assay: Ciprofloxacin MIC measurement; format: cell-based, Escherichia coli; settings: wild-type cells, 100 μm 11
h20S (β1) = h20S (β1) (Homo sapiens, UniProt P28072); assay: h20S β1 subunit inhibition assay; format: biochemical
h20S (β5) = h20S (β5) (Homo sapiens, UniProt P28074); assay: h20S β5 subunit inhibition assay; format: biochemical
E. coli Lon = settings: cited from earlier work
Lon [7] = settings: ratio of normalized cleavage rates at 25 μM substrate
[8] = 60 min enzyme-inhibitor pre-incubation, mean ± SD, n=3

CC(C)C[C@H](NC(=O)[C@H](Cc1ccccc1)NC(=O)c1cnccn1)B(O)O [BZ, bortezomib, reference compound]
effect on exponential growth rates (E. coli [1]): nor treatment with 100 μM 11 or BZ had an effect | EC50 [2]: 160 nM | IC50 (Lon [3]): 500 ± 230 nM | inhibition of recombinant Lon (Lon [3]): potent, time-dependent inhibition

CC(C)C[C@H](NC(=O)[C@H](CC(C)(C)C)NC(=O)[C@H](CCCCNC(=N)N)NC(=O)c1cnccn1)B(O)O [compound 11, Pyz-hArg-nptGly-Leu-B(OH)2]
IC50 (h20S (β2)): 430 ± 40 nM | effect on exponential growth rates (E. coli [1]): nor treatment with 100 μM 11 or BZ had an effect | filamentation after UV stress (E. coli [4]; sulA mutant strain): no effect on filamentation | filamentation after UV stress (E. coli [4]; wild-type, treatment during 6 h outgrowth following UV-stress): dose-dependent increase in filamentation | time course of killing (E. coli [5]; co-treatment with ciprofloxacin and 100 μM 11): faster death than wild type | fraction of cells that tolerated ciprofloxacin (E. coli [5]; sulA mutant strain): this effect was abrogated | fraction of cells that tolerated ciprofloxacin (E. coli [5]; wild-type cells, co-treatment with 10 μg/mL ciprofloxacin, LB and M9 media): statistically-significant reduction | Relative activity (ratio of BZ IC50 to 11 IC50) (Lon [3]; Lon): 1.2 | kinact/KI relative to BZ (Lon [3]; time-dependent inhibition of Lon): two-fold higher | inhibition of recombinant Lon (Lon [3]): potent, time-dependent inhibition | effect on MIC of ciprofloxacin (E. coli [6]): nor treatment of wild-type cells with 100 μm 11 altered the overall MIC | IC50 (h20S (β1); [8]): 1900 ± 140 nM | Relative activity (ratio of BZ IC50 to 11 IC50) (h20S (β1); h20S β1): 0.2 | IC50 (h20S (β5); [8]): 290 ± 6.4 nM | Relative activity (ratio of BZ IC50 to 11 IC50) (h20S (β5); h20S β5): 0.1

CN(C)c1cccc2c(S(=O)(=O)F)cccc12 [dansyl fluoride]
inhibition of E. coli Lon (E. coli Lon): only at mM concentrations

Mo-Leu-Leu-Phe-ACC [compound 1]
selectivity of cleavage, Lon vs h20S (Lon [7]): cleaved equally effectively by both Lon and the proteasome
